# Assay results taken from US7074768B2, “Modified protein kinase A-specific oligonucleotides and methods of their use” (Idera Pharmaceuticals, Inc., priority 1995, dated 2006).
# Tests used:
# [1] = test system: Ki67; assay: Histochemical analysis of GEO tumors: Ki67 staining; type: in vivo; conditions: combination of taxol and HYB 165
# Text: Tumor specimens from the different groups of mice were examined by histochemical analysis at different time points to evaluate the expression of a variety of biological parameters. […] No other treatment was able to affect RIα expression.
# TGFα and AR are growth factors which bind to EGFR and control human colon cancer growth through autocrine and paracrine mechanisms (F. Ciardiello and G. Tortora, Clin. Cancer Res. 4:821–828 (1998); D. S. Salomon, Crit. Rev. Oncol. Hematol. 19:183–232 (1995)).
# [2] = test system: GEO colon cancer xenografts; assay: GEO colon cancer xenografts in nude mice (tumor growth, survival); type: in vivo; conditions: for inhibition of tumor growth: 10 mg/kg/dose
# Experimental: We investigated the antitumor activity of HYB 165 (AS RIα) in nude mice bearing GEO colon cancer xenografts, using either the intraperitoneal (i.p.) or the oral route of administration. When established GEO tumors of approximately […] were detectable, groups of 10 mice were treated i.p. with either HYB 165 or a control modified backbone oligonucleotide with a scrambled sequence, at 5 or 10 mg/kg/dose, daily on days 7 to 11 and 14 to 18. […] The control oligonucleotide produced no inhibition at 10 mg/kg/dose.
# Following oral administration, modified backbone oligonucleotides (MBOs) are absorbed in the upper and lower part of the GI tract and distributed to major organs (S. Agrawal and R. Zhang, In: Antisense Research and Application, S. T. Crooke, ed.), Handbook of Experimental Pharmacology, Springer, Berlin, p. 525–543 (1998). Therefore, HYB 165 and the control oligonucleotide were administered to GEO tumor-bearing mice as described above, except that HYB 165 and the control oligonucleotide were administered orally.
# On day 7 after tumor cell injection, one group of 10 mice was treated with taxol (20 mg/kg/dose, i.p.), and the treatment was repeated every 2 weeks (on day 21 and day 35) for a total of three cycles. Two other groups of mice were treated with either HYB 165 (AS RIα) or a control MBO with a scrambled sequence (10 mg/kg/dose, p.o.), daily for five days (days 8–12). Treatment was repeated every 2 weeks (days 22–26 and days 36–40) for a total of three cycles. Two more groups of mice were treated with taxol and either HYB 165 or the control MBO, administering the taxol (20 mg/kg/dose, i.p.) on day 7, followed by oral administration of either HYB 165 or the control MBO daily for five days (days 8–12). The sequential treatment was repeated with the same schedule every 2 weeks for a total of three cycles.
substance,measurement,setting,value
"HYB 165: Hybrid 18-mer mixed backbone antisense to PKA RIα, GCGUGCCTCCTCACUGGC (SEQ ID NO:4), 2-O-methyl ribonucleotides at 5′ and 3′ ends (sugars by position and backbone not given here; 2'-O-methyl ribonucleotides at both ends, mixed backbone)",cell proliferation by Ki67 staining,[1],almost completely suppressed cell proliferation
same,inhibition of tumor size,"[2]; 10 mg/kg/dose p.o., at the completion of the three cycles of treatment",over 50%
same,tumor growth,"[2]; MBO 10 mg/kg/dose p.o. in combination with taxol 20 mg/kg/dose i.p., three cycles",marked and sustained inhibition of tumor growth
same,survival,"[2]; MBO p.o. in combination with taxol i.p., three cycles",prolonged mouse life span
same,"tolerability (weight loss, signs of acute or delayed toxicity)",[2]; combined treatment with taxol and HYB 165,well tolerated
same,inhibition of tumor growth,"[2]; i.p., daily on days 7 to 11 and 14 to 18, FIG. 16A",up to 40%
same,inhibition of tumor growth,"[2]; oral, two cycles, vs untreated mice, FIG. 16B",about 60%
same,tumor growth,"[2]; single agent, three cycles (taxol 20 mg/kg/dose i.p.; MBO 10 mg/kg/dose p.o.), FIG. 17A",inhibited tumor growth
same,survival time,"[2]; single agent, three cycles, FIG. 17B",increased survival time as compared to the control group
same,time of very slow tumor growth following the end of treatment,"[2]; taxol 20 mg/kg/dose i.p. and HYB 165 10 mg/kg/dose p.o., three cycles",approximately 60 days
same,mice still alive after 15 weeks,[2]; taxol and HYB 165 in combination,about 50%
